The target in assay [1] is T1, GABA-A receptor; alpha-1/beta-2/gamma-2 (Homo sapiens, UniProt P14867+P18507+P47870). Put plainly: Positive allosteric modulation of GABAA receptor alpha1beta2gamma2 (unknown origin). The assay is classed as protein-complex assay.
Assay [2] addresses Gamma-aminobutyric acid receptor subunit alpha-4/beta-2/delta (Homo sapiens, UniProt O14764+P47870+P48169). The experiment in a line: Positive allosteric modulation of GABAA receptor alpha4beta2delta (unknown origin). The assay is classed as protein-complex assay.
Assay [3] has as its target Glycine receptor alpha-3/beta (Homo sapiens, UniProt O75311+P48167). Put plainly: Inhibition of recombinant human glycine receptor alpha3beta expressed in HEK293 cells. The assay is classed as cell-based.
Assay [4] has as its target Glycine receptor (alpha-1/beta) (Homo sapiens, UniProt P23415+P48167). Put plainly: Inhibition of recombinant human glycine receptor alpha1beta expressed in HEK293 cells. The assay is classed as cell-based.
In assay [5] the target is T2, Glycine receptor subunit alpha-1 (Homo sapiens) (UniProt P23415).
T2 sequence (whole entry): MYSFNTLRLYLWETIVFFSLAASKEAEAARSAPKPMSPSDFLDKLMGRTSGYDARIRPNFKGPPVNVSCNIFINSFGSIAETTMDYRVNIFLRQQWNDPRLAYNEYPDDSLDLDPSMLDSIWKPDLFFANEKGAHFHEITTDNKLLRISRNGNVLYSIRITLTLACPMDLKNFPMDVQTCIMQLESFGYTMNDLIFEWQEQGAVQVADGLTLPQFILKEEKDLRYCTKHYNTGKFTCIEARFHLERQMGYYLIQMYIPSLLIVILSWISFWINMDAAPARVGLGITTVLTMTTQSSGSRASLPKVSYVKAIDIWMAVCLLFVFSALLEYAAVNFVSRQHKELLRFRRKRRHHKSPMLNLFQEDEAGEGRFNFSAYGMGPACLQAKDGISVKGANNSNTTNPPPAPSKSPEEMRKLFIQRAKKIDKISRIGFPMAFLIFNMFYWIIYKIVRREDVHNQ
Put plainly: Positive allosteric modulation of recombinant human glycine receptor alpha1 expressed in HEK293 cells assessed as potentiation of glycine-induced current at -60 mV holding potential by whole cell patch-clamp method relative to 10 uM glycine. The class given is cell-based.

The target in assay [6] is T3, Glycine receptor subunit alpha-1 (Homo sapiens, UniProt P23415).
T3 sequence (P23415 whole entry): T2 sequence (whole entry)
Put plainly: Positive allosteric modulation of recombinant human glycine receptor alpha1 expressed in HEK293 cells assessed as increase in glycine-induced current at -60 mV holding potential by whole cell patch-clamp method. The assay is classed as cell-based.

The target in assay [7] is Glycine receptor subunit alpha-2/beta (Homo sapiens, UniProt P23416+P48167). The experiment in a line: Inhibition of recombinant human glycine receptor alpha2beta expressed in HEK293 cells. The assay is classed as cell-based.
Assay [8] has as its target Gamma-aminobutyric acid receptor subunit alpha-1 (Rattus norvegicus) (UniProt P62813). Put plainly: Agonist activity at GABAA receptor in Sprague-Dawley rat forebrain membranes assessed as enhancement of [3H]muscimol binding at 1 to 100 uM after 2 hrs by radiometric analysis relative to control. The note with it: Membrane.
For assay [9], the target named is Gamma-aminobutyric acid receptor subunit alpha-1 (Rattus norvegicus, UniProt P62813). Put plainly: Agonist activity at GABAA receptor in Sprague-Dawley rat forebrain membranes assessed as enhancement of [3H]muscimol binding after 2 hrs by radiometric analysis. Further details: species or system Membrane.
In assay [10] the target is GABA A receptor alpha-3/beta-2/gamma-2 (Homo sapiens) (UniProt P47870+P18507+P34903). The experiment in a line: Positive allosteric modulation of recombinant wild type GABAA receptor alpha3beta2gamma2S (unknown origin) expressed in HEK293 cells assessed as potentiation of GABA induced chloride current response relative to 30 uM GABA. The class given is cell-based.
For assay [11], the target named is T4, GABA A receptor alpha-2/beta-2/gamma-2 (Homo sapiens, UniProt P18507+P47869+P47870). The experiment in a line: Positive allosteric modulation of recombinant wild type GABAA receptor alpha2beta2gamma2S (unknown origin) expressed in HEK293 cells assessed as potentiation of GABA induced chloride current response treated every 30 secs measured for 2 to 3 secs by patch clamp method. The assay is classed as cell-based.

The target in assay [12] is GABA A receptor alpha-3/beta-2/gamma-2 (Homo sapiens, UniProt P18507+P34903+P47870). The experiment in a line: Positive allosteric modulation of recombinant wild type GABAA receptor alpha3beta2gamma2S (unknown origin) expressed in HEK293 cells assessed as potentiation of GABA induced chloride current response treated every 30 secs measured for 2 to 3 secs by patch clamp method. The class given is cell-based.

A further assay concerns HEK293. The experiment in a line: Positive allosteric modulation of recombinant wild type GABAA receptor alpha4beta2gamma2S (unknown origin) expressed in HEK293 cells assessed as potentiation of GABA induced chloride current response relative to GABA. The class given is cell-based. The settings on record: Homo sapiens.
Assay [13] is described as follows: Positive allosteric modulation of recombinant wild type GABAA receptor alpha4beta2gamma2S (unknown origin) expressed in HEK293 cells assessed as potentiation of GABA induced chloride current response treated every 30 secs measured for 2 to 3 secs by patch clamp method. The assay is classed as cell-based. The settings on record: Homo sapiens.
Assay [14] deals with GABA A receptor alpha-2/beta-2/gamma-2 (Homo sapiens) (UniProt P47870+P18507+P47869). Put plainly: Positive allosteric modulation of recombinant wild type GABAA receptor alpha2beta2gamma2S (unknown origin) expressed in HEK293 cells assessed as potentiation of GABA induced chloride current response relative to GABA. The class given is cell-based.
Assay [15] concerns the target T1, GABA-A receptor; alpha-1/beta-2/gamma-2. The experiment in a line: Agonist activity at recombinant human GABAA receptor alpha1beta2gamma2L expressed in Xenopus laevis oocytes incubated for 30 secs by electrophysiological method. The class given is cell-based.
For assay [16], the target named is T4, GABA A receptor alpha-2/beta-2/gamma-2. Put plainly: Agonist activity at recombinant human GABAA receptor alpha2beta2gamma2L expressed in Xenopus laevis oocytes incubated for 30 secs by electrophysiological method. The assay is classed as cell-based.
Assay [17] has as its target GABA A receptor alpha-1/beta-1/gamma-2 (Homo sapiens, UniProt P14867+P18505+P18507). Put plainly: Agonist activity at recombinant human GABAA receptor alpha1beta1gamma2L expressed in Xenopus laevis oocytes incubated for 30 secs by electrophysiological method. The class given is cell-based.

Each structure is given as a SMILES string. pEC50, pIC50: −log10 of the molar value.

T4 sequence (P47870 whole entry): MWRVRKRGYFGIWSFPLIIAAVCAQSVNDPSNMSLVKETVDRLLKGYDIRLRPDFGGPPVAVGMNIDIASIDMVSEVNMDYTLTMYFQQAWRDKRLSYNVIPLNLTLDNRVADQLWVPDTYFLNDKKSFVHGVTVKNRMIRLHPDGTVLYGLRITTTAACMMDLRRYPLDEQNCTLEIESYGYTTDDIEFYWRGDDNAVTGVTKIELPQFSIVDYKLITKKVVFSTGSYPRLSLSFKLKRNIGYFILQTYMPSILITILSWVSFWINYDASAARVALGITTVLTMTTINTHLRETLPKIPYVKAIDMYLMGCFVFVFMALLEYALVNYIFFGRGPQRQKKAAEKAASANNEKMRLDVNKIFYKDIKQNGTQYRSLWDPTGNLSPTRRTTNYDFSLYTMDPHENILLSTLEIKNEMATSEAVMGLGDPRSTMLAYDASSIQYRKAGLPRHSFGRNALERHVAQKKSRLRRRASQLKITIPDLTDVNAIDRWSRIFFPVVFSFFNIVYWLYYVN
T4 sequence (P18507 whole entry): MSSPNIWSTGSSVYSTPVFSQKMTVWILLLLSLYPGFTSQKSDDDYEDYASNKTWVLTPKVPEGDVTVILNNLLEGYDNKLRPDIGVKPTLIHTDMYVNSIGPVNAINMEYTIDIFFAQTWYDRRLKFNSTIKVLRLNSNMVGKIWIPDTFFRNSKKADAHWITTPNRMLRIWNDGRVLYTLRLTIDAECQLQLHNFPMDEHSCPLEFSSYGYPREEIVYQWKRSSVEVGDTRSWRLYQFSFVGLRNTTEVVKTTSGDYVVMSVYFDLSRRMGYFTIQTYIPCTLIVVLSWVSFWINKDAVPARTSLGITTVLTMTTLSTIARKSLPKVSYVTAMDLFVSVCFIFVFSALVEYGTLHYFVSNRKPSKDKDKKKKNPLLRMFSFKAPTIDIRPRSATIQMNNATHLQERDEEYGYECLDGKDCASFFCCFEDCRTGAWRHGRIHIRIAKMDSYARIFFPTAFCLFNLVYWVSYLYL
T4 sequence (P47869 whole entry): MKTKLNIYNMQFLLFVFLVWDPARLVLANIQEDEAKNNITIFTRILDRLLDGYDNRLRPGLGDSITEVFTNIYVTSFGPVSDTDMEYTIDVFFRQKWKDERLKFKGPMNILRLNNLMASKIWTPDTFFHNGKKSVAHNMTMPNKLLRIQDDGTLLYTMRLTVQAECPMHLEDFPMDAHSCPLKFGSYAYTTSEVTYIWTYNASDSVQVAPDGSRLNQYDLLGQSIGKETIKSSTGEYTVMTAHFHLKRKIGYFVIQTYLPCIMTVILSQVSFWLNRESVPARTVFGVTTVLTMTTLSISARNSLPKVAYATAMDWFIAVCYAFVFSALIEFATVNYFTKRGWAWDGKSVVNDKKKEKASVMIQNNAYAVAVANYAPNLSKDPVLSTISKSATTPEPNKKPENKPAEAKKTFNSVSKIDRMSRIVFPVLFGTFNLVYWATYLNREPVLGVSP
T1 sequence (P14867 whole entry): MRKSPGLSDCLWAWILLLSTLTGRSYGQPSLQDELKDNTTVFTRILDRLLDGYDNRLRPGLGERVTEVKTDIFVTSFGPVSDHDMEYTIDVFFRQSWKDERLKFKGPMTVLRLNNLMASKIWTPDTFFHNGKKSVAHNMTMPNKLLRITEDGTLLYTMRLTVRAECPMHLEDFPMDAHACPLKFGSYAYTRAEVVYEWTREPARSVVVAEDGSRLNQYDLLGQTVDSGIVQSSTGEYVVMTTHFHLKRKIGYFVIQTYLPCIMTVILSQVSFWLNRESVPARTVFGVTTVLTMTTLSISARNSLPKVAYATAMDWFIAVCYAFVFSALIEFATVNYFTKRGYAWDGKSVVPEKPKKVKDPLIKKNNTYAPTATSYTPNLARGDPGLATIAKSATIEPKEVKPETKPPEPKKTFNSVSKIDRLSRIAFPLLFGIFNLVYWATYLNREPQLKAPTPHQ
T1 sequence (P47870 whole entry): as the sequence (P47870 whole entry) above
T1 sequence (P18507 whole entry): as the sequence (P18507 whole entry) above
Chain of Gamma-aminobutyric acid receptor subunit alpha-4/beta-2/delta (P47870 whole entry): as the sequence (P47870 whole entry) above
Chain of Gamma-aminobutyric acid receptor subunit alpha-4/beta-2/delta (P48169 whole entry): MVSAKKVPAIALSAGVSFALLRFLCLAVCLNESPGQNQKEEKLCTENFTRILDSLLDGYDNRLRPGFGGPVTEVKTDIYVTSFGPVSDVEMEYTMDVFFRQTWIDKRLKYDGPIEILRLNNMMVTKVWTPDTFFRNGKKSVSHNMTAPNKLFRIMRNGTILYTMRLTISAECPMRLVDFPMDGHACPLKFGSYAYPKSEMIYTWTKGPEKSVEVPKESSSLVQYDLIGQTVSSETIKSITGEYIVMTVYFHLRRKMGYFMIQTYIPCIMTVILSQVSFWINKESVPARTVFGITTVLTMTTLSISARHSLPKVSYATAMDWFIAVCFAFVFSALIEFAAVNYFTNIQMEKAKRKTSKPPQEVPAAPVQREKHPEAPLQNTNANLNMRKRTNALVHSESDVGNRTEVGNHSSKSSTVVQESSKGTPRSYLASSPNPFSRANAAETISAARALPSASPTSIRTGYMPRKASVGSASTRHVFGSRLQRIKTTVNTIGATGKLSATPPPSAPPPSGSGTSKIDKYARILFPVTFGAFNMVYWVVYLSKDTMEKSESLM
Chain of Gamma-aminobutyric acid receptor subunit alpha-4/beta-2/delta (O14764 whole entry): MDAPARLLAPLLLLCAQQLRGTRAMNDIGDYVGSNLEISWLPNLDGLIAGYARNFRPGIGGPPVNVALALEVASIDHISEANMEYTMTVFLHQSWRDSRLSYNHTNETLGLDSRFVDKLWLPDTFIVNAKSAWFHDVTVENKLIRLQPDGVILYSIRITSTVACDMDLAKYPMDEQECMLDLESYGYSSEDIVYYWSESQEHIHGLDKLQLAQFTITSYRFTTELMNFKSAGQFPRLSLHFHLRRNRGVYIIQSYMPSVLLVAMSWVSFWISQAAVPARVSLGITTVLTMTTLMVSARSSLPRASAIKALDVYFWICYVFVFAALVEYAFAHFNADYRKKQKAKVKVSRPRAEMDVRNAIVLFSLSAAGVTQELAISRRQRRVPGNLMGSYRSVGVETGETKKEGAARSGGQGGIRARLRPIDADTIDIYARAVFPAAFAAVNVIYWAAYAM
Chain of GABA A receptor alpha-3/beta-2/gamma-2 (P47870 whole entry): as the sequence (P47870 whole entry) above
Chain of GABA A receptor alpha-3/beta-2/gamma-2 (P18507 whole entry): as the sequence (P18507 whole entry) above
Chain of GABA A receptor alpha-3/beta-2/gamma-2 (P34903 whole entry): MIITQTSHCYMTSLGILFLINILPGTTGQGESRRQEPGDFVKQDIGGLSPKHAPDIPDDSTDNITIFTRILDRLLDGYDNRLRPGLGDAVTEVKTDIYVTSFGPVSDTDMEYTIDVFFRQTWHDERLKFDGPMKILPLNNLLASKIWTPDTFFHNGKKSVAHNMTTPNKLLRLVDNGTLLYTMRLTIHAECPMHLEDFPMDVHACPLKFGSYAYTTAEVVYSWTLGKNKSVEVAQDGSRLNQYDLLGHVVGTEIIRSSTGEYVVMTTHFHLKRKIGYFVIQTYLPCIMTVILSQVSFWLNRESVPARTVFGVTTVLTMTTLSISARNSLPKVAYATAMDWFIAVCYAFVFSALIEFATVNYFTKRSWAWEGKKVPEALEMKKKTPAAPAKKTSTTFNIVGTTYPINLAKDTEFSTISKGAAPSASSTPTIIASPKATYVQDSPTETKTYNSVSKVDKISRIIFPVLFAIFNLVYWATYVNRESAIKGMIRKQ
Chain of Glycine receptor subunit alpha-2/beta (P23416 whole entry): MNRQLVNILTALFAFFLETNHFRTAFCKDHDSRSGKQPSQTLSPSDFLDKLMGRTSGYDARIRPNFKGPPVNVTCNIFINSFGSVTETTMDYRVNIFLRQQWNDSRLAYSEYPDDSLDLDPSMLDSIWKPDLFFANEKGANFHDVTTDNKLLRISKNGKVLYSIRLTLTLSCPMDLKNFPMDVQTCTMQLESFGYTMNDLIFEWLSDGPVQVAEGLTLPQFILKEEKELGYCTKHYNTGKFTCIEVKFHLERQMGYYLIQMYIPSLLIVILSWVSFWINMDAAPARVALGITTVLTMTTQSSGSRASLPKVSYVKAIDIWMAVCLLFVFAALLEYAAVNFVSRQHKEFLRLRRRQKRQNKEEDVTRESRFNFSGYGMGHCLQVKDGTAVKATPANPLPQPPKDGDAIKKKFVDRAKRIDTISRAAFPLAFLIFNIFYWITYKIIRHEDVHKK
Chain of Glycine receptor subunit alpha-2/beta (P48167 whole entry): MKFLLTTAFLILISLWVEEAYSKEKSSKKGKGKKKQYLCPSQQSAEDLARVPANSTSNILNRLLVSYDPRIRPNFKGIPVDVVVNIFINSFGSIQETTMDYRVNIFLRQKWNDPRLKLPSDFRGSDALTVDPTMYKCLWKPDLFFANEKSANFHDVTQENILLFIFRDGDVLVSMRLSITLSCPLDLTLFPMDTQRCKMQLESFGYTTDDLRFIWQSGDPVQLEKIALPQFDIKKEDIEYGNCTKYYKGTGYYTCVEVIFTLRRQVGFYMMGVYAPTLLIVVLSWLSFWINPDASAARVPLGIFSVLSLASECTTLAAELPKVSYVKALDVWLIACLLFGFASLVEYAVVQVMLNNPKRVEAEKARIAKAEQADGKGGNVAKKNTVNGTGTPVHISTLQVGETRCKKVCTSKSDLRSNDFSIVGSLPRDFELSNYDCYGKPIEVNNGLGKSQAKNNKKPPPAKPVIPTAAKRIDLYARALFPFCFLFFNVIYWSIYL
Chain of Glycine receptor (alpha-1/beta) (P48167 whole entry, one chain of several): as the sequence (P48167 whole entry) above

Consider `C[C@@]1(O)CC[C@H]2[C@H](CC[C@@H]3[C@@H]2CC[C@]2(C)[C@@H](C(=O)Cn4cc(C#N)cn4)CC[C@@H]32)C1` [ZURANOLONE], for which the negative-log EC50 (pEC50) was 6.43 in assay [1] and 6.79 in assay [2].

Turning to `C=C[C@]12CN(C)[C@@H]3[C@H]4CO[C@H](C[C@H]41)[C@]1(C(=O)Nc4ccccc41)[C@@H]32` [GELSEMINE], the pIC50 in assay [3], in assay [4] and in assay [7] was 4.30 to 4.52 throughout. The fold change (FC) in [5] was determined as 0.55. Further, the pEC50 in assay [6] is 6.23.

For the compound `CCCCNC(=O)c1cc(-c2ccc(F)cc2F)ccc1O`, the Emax in [8] amounted to 56%. Further, in assay [9], the pEC50 is 4.82.

Take `COc1ccc(C(=O)/C=C/c2cc(OC)ccc2O)cc1`: the figures for the fold change (FC) (in assay [10]; with HEK293; in assay [14]) were 19.6, 6.2 and 13.6, respectively. For the same compound, the figures for the pEC50 in assay [11], in assay [12] and in assay [13] were 5.12, 4.75 and 5.09, respectively.

With `Oc1c(Br)cc(Br)cc1-c1cc(Br)cc(Br)c1O` [BROMOPHENE], the figures for the pEC50 in [15], in assay [16] and in assay [17] were 6.14, 5.97 and 6.49, respectively.

These data come from ChEMBL document CHEMBL4219030, “Progress in the discovery of small molecule modulators of the Cys-loop superfamily receptors” (Bioorg Med Chem Lett, 2017).
